Data from patent US20240317721A1, “PYRAZOLYL DERIVATIVES AS INHIBITORS OF THE KRAS MUTANT PROTEIN” (NOVARTIS AG, priority 2021, published 2024).

Molecular target: KRasG12C (M1-K169, biotinylated on the N-terminus) (Homo sapiens (Human), UniProt P01116, G12C)
Assay: Covalent competition assay: scintillation proximity assay (SPA) quantifying covalent modification of KRASG12C
Format: binding
Conditions: competition with radiolabeled covalent probe (Compound B/Compound A), 2 hours incubation, 10 nM KRasG12C
Protocol: Cells were harvested by centrifugation and frozen at −80° C. until further processing. […] The cells were lysed by 4 passages through an Avestin Emulsiflex at about 20000 psi and insoluble debris removed by centrifugation and filtered through a 0.45 µm Durapore membrane (Millipore). […] Eluted protein fractions were analyzed by Novex NuPage 4-12% PAGE. […] The protein in the flow through was subjected to a final polishing step on a HiLoad 16/60 Superdex 200 prep grade size-exclusion column pre-equilibrated with SEC-buffer (20 mM HEPES pH 7.4, 150 mM NaCl, 5 mM MgCl2, 1 µM GDP). Positive fractions were determined by PAGE (Novex NuPage 4-12% BisTris) analysis.
A scintillation proximity assay (SPA) was used to determine the potency of the compounds.
This assay measures the ability of the test compound to compete with the radiolabeled covalent probe for binding to and covalently modify KRASG12C.
(see above for synthesis of Compound A and Compound B). A serial dilution of the compounds to be tested is mixed with a fixed concentration of the radiolabeled covalent probe before incubation with KRASG12C:GDP as described below. KRASG12C can either be bound by the radiolabeled covalent probe (Compound B), resulting in light being emitted from the beads, or bound by covalent test compound preventing signal generation.
A 1/20 isotopic dilution of labeled (Compound B) and non-labeled covalent (Compound A) probe was prepared and added to all wells on the plate. The reaction was started by addition of KRasG12C (M1-K169, biotinylated on the N-terminus) to the compounds and incubated for 2 hours with continuous agitation allowing for full modification of KRasG12C with probe or test compounds. Final concentrations in an assay volume of 40 μL were 10 nM KRasG12C, 25 nM radio-ligand and 475 nM unlabelled ligand. The assay buffer contained 20 mM Tris-HCl pH 7.5 (Invitrogen), 150 mM NaCl (Sigma Aldrich), 0.1 mM MgCl2 (Sigma Aldrich), and 0.01% Tween-20 (Sigma Aldrich). Following addition of 50 μL of a 400 μg/mL suspension of streptavidin-coated YSi beads (Perkin Elmer), plates were incubated for a further 30 min with continuous agitation before reading the plates on a scintillation counter (Topcount NXT 384 (Packard).
Evaluation was carried out using assay data analysis software (such as the standard Novartis in-house Helios software application, Novartis Institutes for BioMedical Research, unpublished) using the methods described in Formenko et al., Robust Regression for high-throughput screening, Computer Methods and Programs in Biomedicine, 2006, 82, 31-37. Following normalization of activity values for the wells to % inhibition (% inhibition=[(high control−sample)/(high control−low control)]×100), IC50 fitting was carried out from the duplicate determinations present on each plate according to Formenko et al., 2006.
Evaluation can also be carried out using commercially available software which is designed to derive IC50 values using 4-parameter fits (e.g. GraphPad Prism, XL fit).

`C=CC(=O)N1CC2(CC(n3nc(N4CCn5nccc5C4C)c(-c4c(Cl)c(C)cc5[nH]ncc45)c3C)C2)C1` (single isomer, unassigned) [Example 42b, 1-(6-(4-(5-chloro-6-methyl-1H-indazol-4-yl)-5-methyl-3-(4-methyl-6,7-dihydropyrazolo[1,5-a]pyrazin-5(4H)-yl)-1H-pyrazol-1-yl)-2-azaspiro[3.3]heptan-2-yl)prop-2-en-1-one] was tested. Which IC50 did it give?
The IC50 was 186 nM.

`C=CC(=O)N1CC2(CC(n3nc(N4CCN(CC(C)(C)O)CC45CCCC5)c(-c4c(Cl)c(C)cc5[nH]ncc45)c3C)C2)C1` (single isomer, unassigned) [Example 165b, 1-(6-(4-(5-chloro-6-methyl-1H-indazol-4-yl)-3-(9-(2-hydroxy-2-methylpropyl)-6,9-diazaspiro[4.5]decan-6-yl)-5-methyl-1H-pyrazol-1-yl)-2-azaspiro[3.3]heptan-2-yl)prop-2-en-1-one] was tested. Which IC50 did it give?
Its IC50 is 26 nM.

`C=C(F)C(=O)N1CC2(CC(n3nc(N4CCN(C[C@@H]5COCCO5)C[C@]4(C)CC)c(-c4c(Cl)c(C)cc5[nH]ncc45)c3C)C2)C1` (single isomer, unassigned) [Example 174a] was tested. Which IC50 did it give?
Its IC50 is over 5000 nM.

`C=CC(=O)N1CC2(CC(n3nc(N4CC[C@@H](CN5CCN(C(=O)CO)CC5)CC4(C)C)c(-c4c(Cl)c(Cl)cc5[nH]ncc45)c3C)C2)C1` (single isomer, unassigned) [Example 310b] was tested. Which IC50 did it give?
The IC50 was 7 nM.

For `C=CC(=O)N1CC2(CC(n3nc(N4CCC(N(CCOC)CCOC)CC45CCC5)c(-c4c(Cl)c(Cl)cc5[nH]ncc45)c3C)C2)C1` (single isomer, unassigned) [Example 80a, 1-(6-(3-(8-(bis(2-methoxyethyl)amino)-5-azaspiro[3.5]nonan-5-yl)-4-(5,6-dichloro-1H-indazol-4-yl)-5-methyl-1H-pyrazol-1-yl)-2-azaspiro[3.3]heptan-2-yl)prop-2-en-1-one], which IC50 is on record?
Its IC50 is over 5000 nM.

For `[2H]C([2H])([2H])c1c(-c2c(Cl)c(Cl)cc3[nH]ncc23)c(N2CC[C@@H](CN3CCOCC3)CC2(C)C)nn1C1CC2(C1)CN(C(=O)C=C)C2` (single isomer, unassigned) [Example 224a], which IC50 is on record?
The IC50 was over 5000 nM.

With `C=CC(=O)N1CC2(CC(n3nc(N4CCN(C[C@@H]5COCCO5)CC45CCC5)c(-c4c(Cl)c(C)cc5[nH]ncc45)c3C)C2)C1` (single isomer, unassigned) [Example 169b] as the compound, how does the IC50 read?
The IC50 was 12 nM.

Which IC50 does the source give for `C=CC(=O)N1CC2(CC(n3nc(N4CCN(C5CCOCC5)C[C@@]4(C)C(F)F)c(-c4c(Cl)c(Cl)cc5[nH]ncc45)c3C)C2)C1` (single isomer, unassigned) [Example 106a] here?
The IC50 was over 5000 nM.

With `C=CC(=O)N1CC2(CC(n3nc(N4CCN(c5ccnnc5)C[C@]4(C)CC)c(-c4c(Cl)c(C)cc5[nH]ncc45)c3C)C2)C1` (single isomer, unassigned) [Example 192b] as the compound, how does the IC50 read?
Its IC50 is 8 nM.

How did the IC50 turn out when `C=CC(=O)N1CC2(CC(n3nc(N4CCN(c5nccn5C)C[C@]4(C)CC)c(-c4c(Cl)c(C)cc5[nH]ncc45)c3C)C2)C1` (single isomer, unassigned) [Example 194a] was run?
The IC50 was 19 nM.

How did the IC50 turn out when `C=CC(=O)N1CC2(CC(n3nc(N4CCN(C5COC5)CC4(CC)CC)c(-c4c(Cl)c(C)cc5[nH]ncc45)c3C)C2)C1` (single isomer, unassigned) [Example 152a, 1-(6-(4-(5-chloro-6-methyl-1H-indazol-4-yl)-3-(2,2-diethyl-4-(oxetan-3-yl)piperazin-1-yl)-5-methyl-1H-pyrazol-1-yl)-2-azaspiro[3.3]heptan-2-yl)prop-2-en-1-one] was run?
The IC50 was over 5000 nM.

Which IC50 does the source give for `C=CC(=O)N1CC2(CC(n3nc(N4CC[C@@H](CN5CCOCC5)CC4(C)C)c(-c4c(Cl)c(C)cc5[nH]nc(C)c45)c3C#N)C2)C1` (single isomer, unassigned) [Example 225b] here?
The IC50 was over 5000 nM.

How did the IC50 turn out when `C=CC(=O)N1CC2(CC(n3nc(N4CCN(C(=O)N(C)C)CC4(C)C)c(-c4c(Cl)c(C)cc5[nH]ncc45)c3C)C2)C1` (single isomer, unassigned) [Example 129a, 4-(1-(2-acryloyl-2-azaspiro[3.3]heptan-6-yl)-4-(5-chloro-6-methyl-1H-indazol-4-yl)-5-methyl-1H-pyrazol-3-yl)-N,N,3,3-tetramethylpiperazine-1-carboxamide] was run?
The IC50 was 32 nM.

How did the IC50 turn out when `C=CC(=O)N1CC2(CC(n3nc(N4CCN(CC5COCCOC5)C[C@]4(C)CC)c(-c4c(Cl)c(C)cc5[nH]ncc45)c3C)C2)C1` (single isomer, unassigned) [Example 186b] was run?
The IC50 was 7 nM.

How did the IC50 turn out when `C=CC(=O)N1CC2(CC(n3nc(N4CC[C@@H](CN(C5COC5)C5COC5)CC4(C)C)c(-c4c(Cl)c(Cl)cc5[nH]ncc45)c3C)C2)C1` (single isomer, unassigned) [Example 282b] was run?
The IC50 was 7 nM.

With `C=CC(=O)N1CC2(CC(n3nc(N4CC[C@@H](CN5CCN(C6COC6)CC5)CC4(C)C)c(-c4c(Cl)c(F)cc5[nH]ncc45)c3C)C2)C1` (single isomer, unassigned) [Example 245b] as the compound, how does the IC50 read?
The IC50 was 14 nM.

How did the IC50 turn out when `C=CC(=O)N1CC2(CC(n3nc(N4CC[C@@H](CN5CC6(C5)CN(C)C(=O)N6C)CC4(C)C)c(-c4c(Cl)c(Cl)cc5[nH]ncc45)c3C)C2)C1` (single isomer, unassigned) [Example 296a] was run?
Its IC50 is 392 nM.

`C=CC(=O)N1CC2(CC(n3nc(N4CCN(CC(C)(C)O)C[C@]4(C)CC)c(-c4c(Cl)c(C)cc5[nH]ncc45)c3C)C2)C1` (single isomer, unassigned) [Example 161b] was tested. Which IC50 did it give?
Its IC50 is 8 nM.

How did the IC50 turn out when `C=CC(=O)N1CC2(CC(n3nc(N4CCN(C5COC5)CC4(C)C)c(-c4c(Cl)c(C)cc5[nH]ncc45)c3C)C2)C1` (single isomer, unassigned) [Example 67a, 1-(6-(4-(5-chloro-6-methyl-1H-indazol-4-yl)-3-(2,2-dimethyl-4-(oxetan-3-yl)piperazin-1-yl)-5-methyl-1H-pyrazol-1-yl)-2-azaspiro[3.3]heptan-2-yl)prop-2-en-1-one] was run?
The IC50 was over 50000 nM.

Which IC50 does the source give for `C=CC(=O)N1CC2(CC(n3nc(N4CC[C@@H](CN5CCN6C(=O)COC[C@@H]6C5)CC4(C)C)c(-c4c(Cl)c(Cl)cc5[nH]ncc45)c3C)C2)C1` (single isomer, unassigned) [Example 275a] here?
The IC50 was over 5000 nM.

Which IC50 does the source give for `C=CC(=O)N1CC2(CC(n3nc(N4CC[C@@H](CN5CCCC6CN(C)C(=O)C65)CC4(C)C)c(-c4c(Cl)c(Cl)cc5[nH]ncc45)c3C)C2)C1` (single isomer, unassigned) [Example 262a, (4aR*,7aR*)-1-(((R)-1-(1-(2-acryloyl-2-azaspiro[3.3]heptan-6-yl)-4-(5,6-dichloro-1H-indazol-4-yl)-5-methyl-1H-pyrazol-3-yl)-2,2-dimethylpiperidin-4-yl)methyl)-6-methyloctahydro-7H-pyrrolo[3,4-b]pyridin-7-one] here?
The IC50 was over 5000 nM.

For `C=CC(=O)N1CC2(CC(n3nc(N4CC(c5cccnc5)C4)c(-c4c(Cl)c(C)cc5[nH]ncc45)c3C)C2)C1` (single isomer, unassigned) [Example 37b, 1-(6-(4-(5-chloro-6-methyl-1H-indazol-4-yl)-5-methyl-3-(3-(pyridin-3-yl)azetidin-1-yl)-1H-pyrazol-1-yl)-2-azaspiro[3.3]heptan-2-yl)prop-2-en-1-one], which IC50 is on record?
Its IC50 is 2100 nM.

With `C=CC(=O)N1C[C@]2(C[C@H](n3nc(N4CCN(C[C@@H]5COCCO5)C[C@]4(C)CC)c(-c4c(Cl)c(C)cc5[nH]ncc45)c3C)C2)[C@H]1C` (single isomer, unassigned) [Example 200a] as the compound, how does the IC50 read?
Its IC50 is over 5000 nM.

`C=CC(=O)N1CC2(CC(n3nc(N4CC[C@@H](CN5CCC6(C5)CN(C(C)=O)C6)CC4(C)C)c(-c4c(Cl)c(Cl)cc5[nH]ncc45)c3C)C2)C1` (single isomer, unassigned) [Example 317a] was tested. Which IC50 did it give?
Its IC50 is 888 nM.

Which IC50 does the source give for `C=CC(=O)N1CC2(CC(n3nc(N4CCC(n5ccnc5)CC4(C)C)c(-c4c(Cl)c(C)cc5[nH]ncc45)c3C)C2)C1` (single isomer, unassigned) [Example 45a, 1-(6-(3-(4-(1H-imidazol-1-yl)-2,2-dimethylpiperidin-1-yl)-4-(5-chloro-6-methyl-1H-indazol-4-yl)-5-methyl-1H-pyrazol-1-yl)-2-azaspiro[3.3]heptan-2-yl)prop-2-en-1-one] here?
The IC50 was 365 nM.
